We go through 3 compounds from US20080103089A1, “Compounds, Compositions, Formulations and Process for Preparation Thereof and Method of Treatment and Management of Acidity and Related Disorders” (priority 2004, published 2008).

Common to all, as to type: physicochemical
Data set [1] can be described thus: Titration of Glutamic acid in water with NaOH. From the text:
About one milliequivalent of NaOH was neutralized per milliequivalent of Glutamic acid in water to raise the pH of its aqueous solution from 2.9 to about 5.

The nature of data set [2]: Determination of Acid Neutralization Capacity (ANC) by titration against 1N HCl. Here is the method:
About 20 ml of 1N NaOH was added to about or less than 1 gram dry weight of the active ingredient (Protein isolate or protein rich extract) with about 10 ml water content. In cold treatment, the mixture was kept at room temperature overnight until the sedimented coagulum was seen to have been dispersed evenly in a solution. In a hot treatment, the mixture was kept in an oven at 80 degrees Celsius, volume restored to 30 ml by addition of distilled water and titrated after various stages of degradation after the period of treatment. Alkali remaining in excess was either neutralized by titrating against 1N HCl until pH dropped to 10.8 or by dialyzing the mixture using gelatin membrane against 700 milliliter portions of distilled water three to four times until the dialysate contained little alkalinity.
Acid Neutralization Capacity was noted as milliequivalents of HCl neutralized to maintain the pH at 3 for two hours and expressed as per gram dry weight of the active antacid ingredient or per dose of the antacid composition containing the active ingredient. Total volume of the reactants were adjusted to 30 ml or 40 ml and titrated against 1N HCl and pH was noted after each small dropwise addition. The pH was measured by a pH meter.
In titration of distilled water, it was observed that pH of the water raised rapidly to 10.8 with addition of a single drop. Similarly, while titrating 1N NaOH against 1N HCl, fall in pH from 12.2 to 10.8 was gradual. However, thereafter, just one drop was sufficient to lower the pH to neutral. Thus, it was clear that acid neutralized by the products within the pH range of 3 to 10.8 was due to Acid Neutralization Capacity when solutions of antacid active ingredients covered in the examples were titrated for determination of their ANC.
When alkali treated mixtures were titrated, acid required to bring down the pH to 10.8 was considered as acid required to neutralize the unreacted NaOH. Acid required to neutralize pH from 10.8 up to pH 3 was taken for calculation of ANC.
Whenever desired, the alkali treated mixture was dialysed through gelatin membrane against about 700 milliliters of distilled water each time three to four times. Significant quantity of alkalinity appeared in first two dialyses in first two hours. Third dialysis, usually done for several hours overnight usually contained very little of alkalinity in the range of pH 10.8 and above.

The nature of data set [3]: Titration of Sodium Glutamate solution. From the text: Crystalline Sodium Glutamate gave solution of pH 6.7. It took, per milliequivalent of Sodium Glutamate used, little less than 1 milliequivalent of HCl to bring the pH from 6.7 down to 3 and about 1 milliequivalent of […] the pH from 6.7 to 10.8. Here, the crystalline Sodium Glutamate solution of pH 6.7 represents an intermediate form of alkaline protein.

As for `N[C@@H](CCC(=O)O)C(=O)O` [Glutamic acid], in data set [1] (from pH 5 to 10.9), the NaOH consumed result is “about 1.2 milliequivalents per milliequi”. The “pH of aqueous solution” value in data set [1] (in water, before titration) turned out to be 2.9. Further, the NaOH neutralized result in data set [1] (to raise pH from 2.9 to about 5) is given as “About one”.
Take Casein: the ANC in data set [2] (after cold alkali treatment (1N NaOH, room temperature overnight), pH 10.8 to 3) is given as 1.5 milliequivalents of HCl per gr; in data set [2] (after hot alkali treatment (80 degrees Celsius) of 2 days), 4.88 milliequivalents of HCl per gr; in data set [2] (after hot alkali treatment (80 degrees Celsius) of 6 days) it was 8 milliequivalents of HCl per gr; in data set [2] (untreated protein isolate, HCl neutralized to maintain pH 3 for two hours) it was 0.12 per gram.
As for `N[C@@H](CCC(=O)[O-])C(=O)[O-].[Na+].[Na+]` [Sodium Glutamate], the pH of solution in data set [3] (crystalline Sodium Glutamate in solution) amounted to 6.7. The “HCl to bring the pH down” value in data set [3] (pH from 6.7 down to 3) is listed as “less than 1 milliequivalent per milliequiv”. In data set [3] (pH from 6.7 to 10.8), the “HCl to raise the pH” value was “about 1 milliequivalent per milliequiv”.
